From patent US20240376090A1, “ISOXAZOLE DERIVATIVES AS MODULATORS OF THE 5-HT2A SEROTONIN RECEPTOR USEFUL FOR THE TREATMENT OF DISORDERED RELATED THERETO” (Arena Pharmaceuticals, Inc., priority 2020, published 2024)

Legend:
5-HT2A receptor [1] = molecular target: T1, 5-HT2A receptor (Homo sapiens (Human), UniProt P28223); test: Radioligand binding assay ([3H]5-HT competition), 5-HT2A; conditions: [3H]5-HT radioligand, membranes of HEK293 cells expressing recombinant 5-HT2A; Ki from IC50 by Cheng-Prusoff; read-out: 5-HT2A serotonin binding Ki value
T1 sequence (P28223 whole entry): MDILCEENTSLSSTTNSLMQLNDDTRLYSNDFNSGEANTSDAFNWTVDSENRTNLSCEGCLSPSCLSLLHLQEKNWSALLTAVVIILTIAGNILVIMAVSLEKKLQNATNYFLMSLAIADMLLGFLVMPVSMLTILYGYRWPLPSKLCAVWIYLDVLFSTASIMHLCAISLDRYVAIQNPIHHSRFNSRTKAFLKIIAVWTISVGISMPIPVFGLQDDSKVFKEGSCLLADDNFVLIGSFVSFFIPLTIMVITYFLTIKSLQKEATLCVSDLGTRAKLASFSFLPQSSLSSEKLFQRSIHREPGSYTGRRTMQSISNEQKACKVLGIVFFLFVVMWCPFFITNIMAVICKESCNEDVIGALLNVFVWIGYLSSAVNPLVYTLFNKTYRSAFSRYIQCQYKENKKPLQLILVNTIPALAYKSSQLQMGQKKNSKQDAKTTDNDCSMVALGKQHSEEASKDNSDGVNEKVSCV

5-HT2A receptor [2] = molecular target: T1, 5-HT2A receptor; test: HTRF IP-One antagonist assay, 5-HT2A; assay type: cell-based; conditions: HEK293 cells stably expressing recombinant human receptor; IP accumulation with 80 nM 5-HT
Protocol: (§1) HEK293 cells stably expressing 5-HT2 receptors were generated using standard procedures. Cells were dilution cloned and clonal cell lines stably expressing the receptors at low levels were selected for pharmacology studies. In radioligand binding studies using a variety of radiolabeled probes, receptor densities in the 2A, 2B and 2C cell lines were estimated to be 50-70, 150-200, and 10-20 fmol/mg, respectively.
(§2) Inositol phosphate accumulation assays were performed using the HTRF IP-One assay system developed by Cisbio and generally followed the manufacturer's instructions. Briefly, HEK293 cells stably expressing recombinant human receptors were harvested and resuspended in phenol-red free OptiMEM (ThermoFisher), plated into 384-well assay plates (Perkin Elmer, ProxiPlate-Plus® Cat #6008280) at 10,000 cells/well in a volume of 10 μL/well, and incubated overnight at 37° C., 5% CO2. Test compounds were solubilized and serially diluted in DMSO, and then diluted into Assay Buffer (Tris HCl 20 mM, NaCl 150 mM, LiCl 40 mM, pargyline 25 μM, pH 8) containing 80 nM 5-HT. Test compounds were added to the cells (4 μL/well addition, maximal final assay concentration typically 10 μM) and plates, incubated for 2 hrs at 37° C./5% CO2 and then removed from the incubator and allowed to cool to room temperature for 30 minutes prior to addition of IP-One detection reagents. IP-One detection reagents (6 μL/well) were added and plates incubated for 1 hr at room temperature before reading on an HTRF compatible reader such as a Perkin Elmer EnVision® or BMG PheraStar®. Dose-response experiments utilized 10-point curves, typically starting at 10 μM, with 5-fold serial dilutions. Experiments were performed with triplicate data points and independent replicate experiments were performed to ensure data consistency.

5-HT2B receptor = 5-HT2B receptor (Homo sapiens (Human), UniProt P41595); test: HTRF IP-One antagonist assay, 5-HT2B; assay type: cell-based; conditions: HEK293 cells stably expressing recombinant human receptor; IP accumulation with 80 nM 5-HT
Sequence of 5-HT2B receptor (P41595 whole entry): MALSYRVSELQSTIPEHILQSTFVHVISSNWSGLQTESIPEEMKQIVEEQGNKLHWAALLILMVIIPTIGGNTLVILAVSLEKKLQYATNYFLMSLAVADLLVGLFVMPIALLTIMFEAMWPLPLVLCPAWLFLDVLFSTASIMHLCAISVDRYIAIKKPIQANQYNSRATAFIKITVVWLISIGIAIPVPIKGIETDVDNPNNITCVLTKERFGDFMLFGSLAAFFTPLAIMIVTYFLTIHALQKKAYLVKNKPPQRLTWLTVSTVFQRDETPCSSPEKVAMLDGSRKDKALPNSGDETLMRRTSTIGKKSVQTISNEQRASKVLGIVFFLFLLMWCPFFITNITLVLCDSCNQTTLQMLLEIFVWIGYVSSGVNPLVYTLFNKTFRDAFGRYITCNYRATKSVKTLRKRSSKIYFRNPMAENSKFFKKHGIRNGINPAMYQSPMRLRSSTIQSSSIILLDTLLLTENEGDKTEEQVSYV
Protocol: as §1, §2

5-HT2C receptor = 5-HT2C receptor (Homo sapiens (Human), UniProt P28335); test: HTRF IP-One antagonist assay, 5-HT2C; assay type: cell-based; conditions: HEK293 cells stably expressing recombinant human receptor; IP accumulation with 80 nM 5-HT
Sequence of 5-HT2C receptor (P28335 33-458): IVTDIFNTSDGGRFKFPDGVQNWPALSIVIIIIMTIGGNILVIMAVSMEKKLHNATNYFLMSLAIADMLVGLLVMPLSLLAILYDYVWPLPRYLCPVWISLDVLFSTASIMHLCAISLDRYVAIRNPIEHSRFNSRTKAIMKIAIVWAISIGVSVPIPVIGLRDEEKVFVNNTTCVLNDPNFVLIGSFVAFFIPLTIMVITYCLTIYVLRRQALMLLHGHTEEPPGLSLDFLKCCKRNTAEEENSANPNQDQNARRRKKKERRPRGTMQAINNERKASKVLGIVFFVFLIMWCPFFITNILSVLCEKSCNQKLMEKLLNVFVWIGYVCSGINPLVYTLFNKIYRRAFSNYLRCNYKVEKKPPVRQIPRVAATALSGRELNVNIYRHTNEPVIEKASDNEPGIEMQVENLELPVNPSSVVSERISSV
Protocol: as §1, §2

Ki (5-HT2A receptor [1]) [nM] | IC50 (5-HT2A receptor [2]) [nM] | IC50 (5-HT2B receptor) [nM] | IC50 (5-HT2C receptor) [nM] | Compound
0.907 | 2.58 | ≥ 100000 | ≥ 100000 | COc1cccc(C(=O)Nc2ccc(OC[C@H]3CCCCN3)c(-c3c(C)noc3C)c2)c1 [Compound 220, (R)—N-(3-(3,5-dimethylisoxazol-4-yl)-4-(piperidin-2-ylmethoxy)phenyl)-3-methoxybenzamide]
4.72 | 20.7 | ≥ 100000 | ≥ 100000 | CCOC1CC1C(=O)Nc1ccc(OC[C@H]2CCCCN2)c(-c2c(C)noc2C)c1 (stereo partly drawn) [Compound 229, N-(3-(3,5-dimethylisoxazol-4-yl)-4-(((R)-piperidin-2-yl)methoxy)phenyl)-2-ethoxycyclopropane-1-carboxamide]
2.6 | 8.69 | ≥ 100000 | ≥ 100000 | Cc1noc(C)c1-c1cc(NC(=O)c2c(F)cnn2C)ccc1OCCN1CCCC1 [Compound 114, N-(3-(3,5-dimethylisoxazol-4-yl)-4-(2-(pyrrolidin-1-yl)ethoxy)phenyl)-4-fluoro-1-methyl-1H-pyrazole-5-carboxamide]
